Each molecule was assayed on HCV 1b genotype (assay: Cell-based luciferase reporter HCV (Ib) RNA replication assay (Huh-ET replicon cells)). Conditions: Hepatitis C virus, 96 h; HCV 1b genotype replicon, 4 days incubation, luciferase readout.
Text: Cell-Based Luciferase Reporter HCV (Ib) RNA Replication Assay Cell Culture
Replicon cell lines Huh-5.2 are derived from the Huh-7 hepatocarcinoma cell line are maintained in culture as generally described in Krieger, N; Lohmann, V; Bartenschlager, R. Enhancement of hepatitis C virus RNA replication by cell culture-adaptive mutations. J. Virol. 2001, 75, 4614-4624. The Huh-5.2 cells contain the highly cell culture-adapted replicon I389 Luc-ubi-neo/NS3-375.1 construct that carries, in addition to the neomycin gene, an integrated copy to the firefly luciferase gene (Krieger, N; Lohmann, V; Bartenschlager, R. Enhancement of hepatitis C virus RNA replication by cell culture-adaptive mutations. J. Virol. 2001, 75, 4614-4624). This cell line allows measurement of HCV RNA replication and translation by measuring luciferase activity. It has been previously shown that the luciferase activity tightly follows the replicon RNA level in these cells (Krieger, N; Lohmann, V; Bartenschlager, R. Enhancement of hepatitis C virus RNA replication by cell culture-adaptive mutations. J. Virol. 2001, 75, 4614-4624). The Huh-ET cell line has the same features as those mentioned for Huh-5.2 cell line, except that ET cells are more robust and contain an adaptative mutation in the HCV NS4B gene instead of NS5A. Both cell lines are maintained in cultures at a sub-confluent level (<85%) as the level of replicon RNA is highest in actively proliferating cells. The culture media used for cell passaging consist of DMEM (Gibco BRL Laboratories, Mississauga, ON, Canada) supplemented with 10% foetal bovine serum with 1% penicilin/streptomycin, 1% glutamine, 1% sodium pyruvate, 1% non-essential amino acids, and 180 μg/ml of G418 final concentration. Cells are incubated at 37° C., in an atmosphere of 5% CO2 and passaged twice a week to maintain sub-confluence.
Approximately 3000 viable Huh-ET cells (100 μl) are plated per well in a white opaque 96-well microtiter plate. The cell culture media used for the assay is the same as described above except that it contains no G418 and no phenol red. After an incubation period of 3-4 hours at 37° C. in a 5% CO2 incubator, compounds (100 μl) are added at various concentrations. Cells are then further incubated for 4 days at 37° C. in a 5% CO2 incubator. Thereafter, the culture media is removed and cells are lysed by the addition of 95 μL of the luciferase buffer (luciferin substrate in buffered detergent). Cell lysates are incubated at room temperature and protected from direct light for at least 10 minutes. Plates are read for luciferase counts using a luminometer (Wallac MicroBeta Trilux, Perkin Elmer™, MA, USA).
The 50% inhibitory concentrations (IC50s) for inhibitory effect are determined from dose response curves using eleven concentrations per compound in duplicate. Curves are fitted to data points using nonlinear regression analysis, and IC50s are interpolated from the resulting curve using GraphPad Prism software, version 2.0 (GraphPad Software Inc., San Diego, Calif., USA).
EC50 ranges are presented in micromolar as follows: μM+++<=0.005<++<=5.0<+.

Row | Compound | IC50 [nM]
1 | COC(=O)N[C@H](C(=O)N1C[C@@H](C)C[C@H]1c1nc(C#Cc2ccc(C#Cc3c[nH]c([C@@H]4C[C@H](C)CN4C(=O)[C@@H](NC(=O)OC)[C@@H](C)OC)n3)cc2)c[nH]1)[C@@H](C)OC [Compound 7] | ≤ 5
2 | COC(=O)N[C@H](C(=O)N1C[C@@H](C)C[C@H]1c1ncc(C#Cc2ccc(C#Cc3cnc([C@@H]4C[C@H](C)CN4C(=O)[C@@H](NC(=O)OC)C(C)C)[nH]3)c(F)c2)[nH]1)C(C)C [Compound 36] | ≤ 5
3 | COC(=O)N[C@H](C(=O)N1C[C@@H](C)C[C@H]1c1ncc(C#Cc2ccc(C#Cc3[nH]c([C@@H]4C[C@H](C)CN4C(=O)[C@@H](NC(=O)OC)C(C)C)nc3I)cc2)[nH]1)C(C)C [Compound 20] | ≤ 5
4 | COC(=O)N[C@H](C(=O)N1C[C@@H](C)C[C@H]1c1ncc(C#Cc2ccc(C#Cc3cnc([C@@H]4C[C@H](C)CN4)[nH]3)cc2)[nH]1)C(C)C [Compound 39] | 5 to 5000
5 | COC(=O)N[C@H](C(=O)N1CCC[C@H]1c1nc(-c2cc3sc(-c4c[nH]c([C@@H]5CCCN5C(=O)[C@@H](NC(=O)OC)C(C)C)n4)cc3s2)c[nH]1)C(C)C [Example 25, Methyl N-[(1S)-1-[(2S)-2-[4-[2-[2-[(2S)-1-[(2S)-2-(methoxycarbonylamino)-3-methyl-butanoyl]pyrrolidin-2-yl]-1H-imidazol-4-yl]thieno[3,2-b]thiophen-5-yl]-1H-imidazol-2-yl]pyrrolidine-1-carbonyl]-2-methyl-propyl]carbamate] | ≤ 5
6 | COC(=O)N[C@H](C(=O)N1C[C@@H](C)C[C@H]1c1nc(C#Cc2ccc(C#Cc3c[nH]c([C@@H]4C[C@H](C)CN4C(=O)[C@@H](NC(=O)OC)C(C)C)n3)c(Cl)c2)c[nH]1)C(C)C [Compound 63] | ≤ 5
7 | COC(=O)N[C@H](C(=O)N1C[C@@H](C)C[C@H]1c1nc(C#Cc2ccc(C#Cc3c[nH]c([C@@H]4C[C@H](C)CN4C(=O)[C@@H](NC(=O)OC)C(C)C)n3)c(C(=O)OC)c2)c[nH]1)C(C)C [Compound 57] | ≤ 5
8 | COC(=O)N[C@H](C(=O)N1C[C@@H](C)C[C@H]1c1nc(C)c(C#Cc2cc3sc(C#Cc4[nH]c([C@@H]5C[C@H](C)CN5C(=O)[C@@H](NC(=O)OC)C(C)C)nc4C)cc3s2)[nH]1)C(C)C [Compound 66] | ≤ 5
9 | COC(=O)N[C@H](C(=O)N1C[C@@H](C)C[C@H]1c1nc(CO)c(C#Cc2ccc(C#Cc3[nH]c([C@@H]4C[C@H](C)CN4C(=O)[C@@H](NC(=O)OC)C(C)C)nc3CO)cc2)[nH]1)C(C)C [Compound 59] | 5 to 5000
10 | COC(=O)N[C@H](C(=O)N1CCC[C@H]1c1ncc(C#Cc2ccc(C#Cc3cnc([C@@H]4CCCN4C(=O)[C@@H](NC(=O)OC)C(C)C)[nH]3)s2)[nH]1)C(C)C [Compound 3] | ≤ 5
11 | COC(=O)N[C@H](C(=O)N1C[C@@H](C)C[C@H]1c1ncc(C#Cc2cc3sc(C#Cc4cnc([C@@H]5C[C@H](C)CN5C(=O)[C@@H](NC(=O)OC)C(C)C)[nH]4)cc3s2)[nH]1)C(C)C [Compound 10] | ≤ 5
12 | COC(=O)N[C@H](C(=O)N1C[C@H](C)C[C@H]1c1nc(C)c(C#Cc2ccc(C#Cc3[nH]c([C@@H]4C[C@@H](C)CN4C(=O)[C@@H](NC(=O)OC)C(C)C)nc3C)cc2)[nH]1)C(C)C [Compound 28] | ≤ 5
13 | COC(=O)N[C@H](C(=O)N1C[C@@H](C)C[C@H]1c1nc(CCc2ccc(CCc3c[nH]c([C@@H]4C[C@H](C)CN4C(=O)[C@@H](NC(=O)OC)C(C)C)n3)cc2)c[nH]1)C(C)C [Compound 17] | 5 to 5000
14 | COC(=O)N[C@H](C(=O)N1C[C@@H](C)C[C@H]1c1nc(C#Cc2ccc(C#Cc3c[nH]c([C@@H]4C[C@H](C)CN4C(=O)[C@@H](NC(=O)OC)C(C)C)n3)c(C)c2)c[nH]1)C(C)C [Compound 16] | ≤ 5
15 | COC(=O)N[C@H](C(=O)N1CC(C)(C)C[C@H]1c1nc(C)c(C#Cc2ccc(C#Cc3[nH]c([C@@H]4CC(C)(C)CN4C(=O)[C@@H](NC(=O)OC)C(C)C)nc3C)cc2)[nH]1)C(C)C [Example 30] | ≤ 5
16 | COC(=O)N[C@H](C(=O)N1C[C@@H](C)C[C@H]1c1nc(-c2ccc3cc(-c4c[nH]c([C@@H]5C[C@H](C)CN5C(=O)[C@@H](NC(=O)OC)C(C)C)n4)ccc3c2)c[nH]1)C(C)C [Compound 49] | ≤ 5

Row | Compound | IC50 [nM]
17 | COC(=O)N[C@H](C(=O)N[C@H](C(=O)N1C[C@@H](C)C[C@H]1c1ncc(C#Cc2ccc(C#Cc3cnc([C@@H]4C[C@H](C)CN4C(=O)[C@@H](NC(=O)OC)C(C)C)[nH]3)cc2)[nH]1)C(C)C)C(C)C [Compound 46] | ≤ 5
18 | COC(=O)N[C@H](C(=O)N1CCC[C@H]1c1nc(C#Cc2ccc(C#Cc3c[nH]c([C@@H]4CCCN4C(=O)[C@@H](NC(=O)OC)C(C)C)n3)c3ocnc23)c[nH]1)C(C)C [Compound 13] | ≤ 5
19 | COC(=O)N[C@H](C(=O)N1C[C@@H](C)C[C@H]1c1nc(I)c(C#Cc2ccc(C#Cc3[nH]c([C@@H]4C[C@H](C)CN4C(=O)[C@@H](NC(=O)OC)C(C)C)nc3I)cc2)[nH]1)C(C)C [Compound 21] | ≤ 5
20 | COC(=O)N[C@H](C(=O)N1C[C@@H](C)C[C@H]1c1nc(C#Cc2ccc3nc(C#Cc4c[nH]c([C@@H]5C[C@H](C)CN5C(=O)[C@@H](NC(=O)OC)C(C)C)n4)ccc3c2)c[nH]1)C(C)C [Compound 55] | ≤ 5
21 | COC(=O)N[C@H](C(=O)N1C[C@@H](C)C[C@H]1c1nc(C)c(C#Cc2ccc(C#Cc3[nH]c([C@@H]4C[C@H](C)CN4C(=O)[C@@H](NC(=O)OC)C(C)C)nc3C)c(F)c2)[nH]1)C(C)C [Compound 31] | ≤ 5
22 | COC(=O)N[C@H](C(=O)N1C[C@@H](C)C[C@H]1c1nc(C)c(-c2cc3sc(-c4[nH]c([C@@H]5C[C@H](C)CN5C(=O)[C@@H](NC(=O)OC)C(C)C)nc4C)cc3s2)[nH]1)C(C)C [Compound 47] | ≤ 5
23 | COC(=O)N[C@H](C(=O)N1C[C@@H](C)C[C@H]1c1nc(C(F)(F)F)c(C#Cc2ccc(C#Cc3[nH]c([C@@H]4C[C@H](C)CN4C(=O)[C@@H](NC(=O)OC)C(C)C)nc3C(F)(F)F)cc2)[nH]1)C(C)C [Compound 48] | ≤ 5
24 | COC(=O)N[C@H](C(=O)N1C[C@@H](C)C[C@H]1c1ncc(C#Cc2ccc(C#Cc3cnc([C@@H]4C[C@H](C)CN4C(=O)[C@H](NC(=O)OC)C(C)C)[nH]3)cc2)[nH]1)C(C)C [Compound 33] | ≤ 5
25 | COC(=O)N[C@H](C(=O)N1CCC[C@H]1c1ncc(C#Cc2ccc(C#Cc3cnc([C@@H]4CCCN4C(=O)[C@@H](NC(=O)OC)C(C)C)[nH]3)c3c2OCO3)[nH]1)C(C)C [Compound 2] | ≤ 5
26 | C[C@H]1C[C@@H](c2ncc(C#Cc3ccc(C#Cc4cnc([C@@H]5C[C@H](C)CN5C(=O)OC(C)(C)C)[nH]4)cc3)[nH]2)N(C(=O)OC(C)(C)C)C1 [Compound 23] | 5 to 5000
27 | COC(=O)N[C@H](C(=O)N1C[C@@H](C)C[C@H]1c1ncc(-c2ccc(-c3cc4sc(-c5cnc([C@@H]6C[C@H](C)CN6C(=O)[C@@H](NC(=O)OC)C(C)C)[nH]5)cc4s3)cc2)[nH]1)C(C)C [Compound 69] | ≤ 5
28 | COC(=O)N[C@H](C(=O)N1C[C@@H](C)C[C@H]1c1ncc(C#Cc2cc(C)c(C#Cc3cnc([C@@H]4C[C@H](C)CN4C(=O)[C@@H](NC(=O)OC)C(C)C)[nH]3)cc2C)[nH]1)C(C)C [Compound 8] | ≤ 5
29 | COC(=O)N[C@H](C(=O)N1C[C@@H](C)C[C@H]1c1nc(C)c(C#Cc2ccc(C#Cc3[nH]c([C@@H]4C[C@H](C)CN4C(=O)[C@@H](NC(=O)OC)C(C)C)nc3C)cc2)[nH]1)C(C)C [Compound 18] | ≤ 5
30 | COC(=O)N[C@H](C(=O)N1CCC[C@H]1c1nc(C)c(C#Cc2ccc(C#Cc3[nH]c([C@@H]4CCCN4C(=O)[C@@H](NC(=O)OC)C(C)C)nc3C)cc2)[nH]1)C(C)C [Compound 19] | ≤ 5
31 | COC(=O)N[C@H](C(=O)N1C[C@@H](C)C[C@H]1c1nc(C#Cc2ccc3cc(C#Cc4c[nH]c([C@@H]5C[C@H](C)CN5C(=O)[C@@H](NC(=O)OC)C(C)C)n4)ccc3c2)c[nH]1)C(C)C [Compound 6] | ≤ 5
32 | COC(=O)N[C@H](C(=O)N1C[C@@H](C)C[C@H]1c1nc(C#Cc2ccc(C#Cc3c[nH]c([C@@H]4C[C@H](C)CN4C(=O)[C@@H](NC(=O)OC)C(C)C)n3)c(C#N)c2)c[nH]1)C(C)C [Compound 62] | ≤ 5

Source: patent publication US20130072523A1, “ANALOGUES FOR THE TREATMENT OR PREVENTION OF FLAVIVIRUS INFECTIONS” (VERTEX PHARMACEUTICALS INCORPORATED, priority 2009, published 2013)
